Test results reported in patent publication US20120115801A1, “METHOD FOR OBTAINING A STABLE DISPERSION OF BENZOYL PEROXIDE” (Dow Pharmaceutical Sciences, Inc., priority 2008, published 2012).

What was measured:
[1] = benzoyl peroxide wettability study; type: physicochemical; details: 1.5 g powder, agitated as in Example 1
Procedure: A benzoyl peroxide wettability study was conducted as follows. 1.5 grams of a hydrous benzoyl peroxide powder was spread on the surface of each of three test fluids contained in glass beakers having about a 5 cm diameter, containing either 30 ml of purified water (Sample A), 30 ml of a fluid composed of 5% propylene glycol and 95% purified water (Sample B), or 30 ml of a fluid composed of 50% propylene glycol and 50% purified water (Sample C). At the bottom of each beaker was a 12 mm×8 mm magnetic stir bar. Each of the fluids, with the benzoyl peroxide powder on the surface, was stirred at 1200 rpm. After 5 and 10 minutes of stirring, the samples were visually inspected for the degree of wetting of the benzoyl peroxide. Good wetting was evidenced by visual determination of little or no agglomeration and/or crusting. It was determined that the wetting of the benzoyl peroxide in Sample A was poor, with little or no visual evidence of wetting. The wetting of the benzoyl peroxide in Sample B was determined to be good, with visual evidence of wetting of a significant portion of the benzoyl peroxide powder. The wetting of the benzoyl peroxide in Sample C was determined to be very good, with visual evidence of wetting of the majority of the benzoyl peroxide powder.
The wetting study of Example 1 was repeated utilizing 1.5 grams of benzoyl peroxide powder and 30 ml of a fluid composed of 7.5% ethanol and 92.5% water. The fluid with the benzoyl peroxide powder was agitated as described in Example 1. The wetting of the benzoyl peroxide in the fluid was determined to be very good, with visual evidence of wetting of the majority, about 90%, of the benzoyl peroxide powder.
The wetting study of Example 1 was repeated utilizing 1.5 grams of benzoyl peroxide powder and 30 ml of a fluid composed of 20% polyethylene glycol (PEG 200) and 80% water. The fluid with the benzoyl peroxide powder was agitated as described in Example 1. The wetting of the benzoyl peroxide in the fluid was determined to be very good, with visual evidence of wetting of the majority, about 90%, of the benzoyl peroxide powder.

[2] = visual inspection of the benzoyl peroxide suspension and wet-milling (Gaulin Mill) to a micro-suspension; details: for stability of micro-suspension after wet-milling: Gaulin Mill, no surfactants
Procedure: A suspension was prepared containing 33.2% w/w hydrous benzoyl peroxide utilizing a dispersing fluid containing 34.0% w/w propylene glycol and 66% w/w water. Into a 200 gallon stainless steel tank, 175 kg of purified water and 90 kg of propylene glycol were combined. The combination was agitated with a propeller mixer to form a mixture. While mixing, 132 kg of hydrous benzoyl peroxide. (74.5% benzoyl peroxide) powder was added. Mixing continued at 1024 rpm for about 20 minutes to wet and disperse the benzoyl peroxide powder and to obtain a benzoyl peroxide suspension.
The suspension was passed through a Gaulin Mill for micronization using a wet-milling method. […] The propylene glycol content was diluted upon incorporation of benzoyl peroxide suspension into the final topical dosage form to make the 6.26% benzoyl peroxide gel.
A suspension was prepared containing 24.8% w/w hydrous benzoyl peroxide utilizing a dispersing fluid containing 9.4% w/w propylene glycol and 90.6% w/w water. Into a stainless steel tank, 36 kg of purified water and 3.75 kg of propylene glycol were combined. The combination was agitated with a propeller mixer to form a mixture. While mixing, 13.12 kg of hydrous benzoyl peroxide (74.5% benzoyl peroxide) was added. Mixing continued at 1450 rpm for about 10 minutes to wet and disperse the benzoyl peroxide powder and to obtain a benzoyl peroxide suspension.
This suspension was transferred to a Gaulin Mill for micronization using a wet-milling method.
A suspension was prepared containing 24.7% benzoyl peroxide (hydrous) utilizing a dispersing fluid containing 47.6% w/w propylene glycol and 52.4% w/w water. Into a stainless steel tank, 27.5 kg of purified water and 25 kg of propylene glycol were combined. The combination was agitated with a propeller mixer to form a mixture. While mixing, 17.19 kg of hydrous benzoyl peroxide (74.5% benzoyl peroxide) was added. Mixing continued at 858 rpm for about 1 hour to wet and disperse the benzoyl peroxide powder and to obtain a benzoyl peroxide suspension.
This suspension was passed through a Gaulin Mill for micronization using a wet-milling method. […] The propylene glycol content was diluted upon combining the benzoyl peroxide suspension with the clindamycin solution to form the final pharmaceutical product.

[3] = 30 ml fluid of 7.5% ethanol and 92.5% water
[4] = 30 ml fluid of 20% polyethylene glycol (PEG 200) and 80% water

Question: For `O=C(OOC(=O)c1ccccc1)c1ccccc1` [benzoyl peroxide], which “portion of the benzoyl peroxide powder wetted (visual evidence)” value [1, 3] is on record?
Answer: about 90%

Question: What about the “wetting of the benzoyl peroxide in the fluid (visual)” value [1, 3] of the same molecule?
Answer: very good

Question: And the “portion of the benzoyl peroxide powder wetted (visual evidence)” value [1, 4]?
Answer: about 90%

Question: What about the “wetting of the benzoyl peroxide in the fluid (visual)” value [1, 4] of the same molecule?
Answer: very good

Question: What about the “stability of micro-suspension after wet-milling” value (shortened to “stability of micro-suspension”) ([2]; Example 2: 33.2% w/w hydrous benzoyl peroxide in 34.0% w/w propylene glycol / 66% w/w water) of the same molecule?
Answer: stable

Question: And the “appearance of suspension upon visual inspection” value ([2]; Example 2: 33.2% w/w hydrous benzoyl peroxide in 34.0% w/w propylene glycol / 66% w/w water, mixed 1024 rpm about 20 minutes)?
Answer: smooth and free of lumps

Question: And the “stability of micro-suspension” value ([2]; Example 3: 24.8% w/w hydrous benzoyl peroxide in 9.4% w/w propylene glycol / 90.6% w/w water)?
Answer: stable

Question: And the “appearance of suspension upon visual inspection” value ([2]; Example 3: 24.8% w/w hydrous benzoyl peroxide in 9.4% w/w propylene glycol / 90.6% w/w water, mixed 1450 rpm about 10 minutes)?
Answer: smooth and free of lumps

Question: What about the “stability of micro-suspension” value ([2]; Example 4: 24.7% benzoyl peroxide (hydrous) in 47.6% w/w propylene glycol / 52.4% w/w water) of the same molecule?
Answer: stable

Question: And the “appearance of suspension upon visual observation” value ([2]; Example 4: 24.7% benzoyl peroxide (hydrous) in 47.6% w/w propylene glycol / 52.4% w/w water, mixed 858 rpm about 1 hour)?
Answer: smooth and free of lumps
